Reference: article PMC3842171 (Bioorganic & medicinal chemistry letters, 2011)

Columns and labels:
HDAC1, HDAC3, and HDAC6 = experiment: Single-concentration isoform selectivity screen with Fluor de Lys kit; type: biochemical
[1] = system: HDAC activity (HeLa cell lysates); experiment: Fluor de Lys in vitro fluorescence HDAC activity assay using HeLa cell lysates; type: biochemical

Compound	isoform preference in single-concentration screen (HDAC1, HDAC3, and HDAC6; 32 µM)	fold decreased activity compared to the methyl analogue 1e [1] [fold]	isoform preference in single-concentration screen (HDAC1, HDAC3, and HDAC6; 375 nM)	fold less potent than SAHA ([1]; IC50 ratio versus SAHA) [fold]
CCCCC(CCCCC(=O)Nc1ccccc1)CC(=O)NO (stereo not shown) [Compound 1a, C3-n-butyl SAHA]	preference for HDAC6 over HDAC3			
O=C(CC(CCCCC(=O)Nc1ccccc1)c1ccccc1)NO (stereo not shown) [Compound 1b]	preference for HDAC6 over HDAC3			
CCC(CCCCC(=O)Nc1ccccc1)CC(=O)NO (stereo not shown) [Compound 1c]	greater potency for HDAC6 over HDAC1 and HDAC3	91		
C=CC(CCCCC(=O)Nc1ccccc1)CC(=O)NO (stereo not shown) [Compound 1d]	preference for HDAC6 over HDAC3			
CC(CCCCC(=O)Nc1ccccc1)CC(=O)NO (stereo not shown) [Compound 1e]			slight preference for HDAC1 over HDAC3 and HDAC6	4
